Data: paper PMC7961214 (Advanced Pharmaceutical Bulletin, 2020)
Like-named read-outs stand apart in the source and are kept apart here.

How the values were obtained:
[1] = Particle size and distribution (Delsa Nanoparticle Size Analyzer); assay type: physicochemical
From the text: The examination of particle size and distribution of particles from nanoparticles was done using the Delsa™ Nanoparticle Size Analyzer (Beckman Coulter, Brea, USA).

[2] = cited from earlier work
[3] = cited from earlier work; remark: listed apart in the source
[4] = In vivo pharmacokinetic study, curcumin plasma concentration by UPLC-MS/MS; design: species or system female Wistar rats; details: rats, single oral dose 100 mg/kg BW, mean ± SE (n = 5)
Method: The pharmacokinetic evaluation was carried out after obtaining approval from the Ethics Committee of the Faculty of Medicine Universitas Indonesia (approval number: 1188/ UN.2 F1/ETIK/2018). A pharmacokinetic study was carried out in female Wistar rats to determine the pharmacokinetic profile of curcumin particles and nanoparticles. Rats weighing 150–200 g were obtained and maintained at the Biomedical Research Center and Basic Health Technology Laboratory, Balitbangkes, Republic of Indonesia, Ministry of Health. The rats were placed in a room with constant temperature and humidity, adequate lighting, pellet food, and water ad libitum.
For each analysis, blood samples were pooled from six rats. […] Blood samples were taken from the rats tail vein using EDTA tubes. Blood samples were centrifuged at 3000 rpm for 15 minutes to obtain plasma, then stored at -80°C until analysis.
The LC-MS/MS system used was UPLC Waters and tandem mass spectrometry with a positive electrospray ionization source. Separation of analyte in the sample was carried using a liquid chromatography system with Acquity UPLC® BEH C18 column and mobile phase gradient in the form of 0.1% and acetonitrile formic acid with a ratio of 72:28 with analyte rate of 0.3 mL/min and injection volume of 3 µL. […] The calibration curve of a standard solution was made with the final level of the analytes at 1, 2.5, 5, 10, 25, and 50 ng/mL.[24]
The pharmacokinetic profiles were represented as mean and standard error (SE) from each group and were estimated through non-compartmental analysis. […] The area under the curve (AUC) from the beginning to the endpoint ( AUC^0→3 ) was calculated using the trapezoidal method. AUC^0→∞ is the amount of the AUC per time interval from 0 to the time of infinity, calculated by AUC^0→3 […]; Cpn is the plasma concentration at the last sampling time. […] The t1/2 was counted using the equation t1/2 = ln 2/Ke, and the CL was calculated by dividing the dose by AUC^0→∞ .[25]

[5] = 340 mg/kg given orally ref Timothy et al; cited from earlier work

Compound: COc1cc(/C=C/C(=O)CC(=O)/C=C/c2ccc(O)c(OC)c2)ccc1O [Curcumin particles, Curcumin]
- mean particle size [1]: 16103.4 nm
- partition coefficient [2]: 2.3–2.6
- bioavailability [3]: approximately 1%
- Cmax ([4]; female, Wistar, rat): 1.51 ± 0.401 ng/mL
- Tmax ([4]; female, Wistar, rat): 44 min
- AUC(0-t) ([4]; female, Wistar, rat, read-out: AUC0-3): 1.5 ± 0.401 ng·h/mL
- AUC ([4]; female, Wistar, rat, read-out: AUC0-~): 1.71 ± 0.535 ng·h/mL
- k el ([4]; female, Wistar, rat, read-out: Ke (converted)): 0.000327 s⁻¹
- half-life ([4]; female, Wistar, rat, read-out: t1/2 elimination (converted)): 51.5 ± 12.8 min
- Ka ([4]; residual method): 1.958 ± 0.468 h⁻¹
- Tmax [5]: 30 min
